Data as given in PMC3436892, “Novel African Trypanocidal Agents: Membrane Rigidifying Peptides” (PLoS ONE, 2012).

Legend:
[1] = Parallax analysis of tryptophan penetration depth; format: physicochemical; settings: for F1/F2 ± S.D.: ratio of tryptophan fluorescence intensity (357 nm) with shallow (6,7-dibromo-PC, F1) and deep (9,10-dibromo-PC, F2) quencher, 200 µg/ml liposomes, at least triplicate
Method: The hydrocarbon penetration depth of tryptophans spaced throughout synthetic peptides corresponding to SHP-1 or SHP-3 (Table S1) was determined by parallax analysis with brominated phosphatidylcholine liposomes. Large unilamellar liposomes composed of egg phosphatidylcholine and 10 mol % 1-palmitoyl-2-(6,7-dibromo)stearoyl-sn-glycero-3-phosphocholine (shallow quencher) or 1-palmitoyl-2-(9,10-dibromo)stearoyl-sn-glycero-3-phosphocholine (deep quencher) were constructed by hydration of a thin dry lipid film with phosphate buffered saline. Resulting multilamellar liposomes were made unilameller via extrusion through polycarbonate filters with 0.1 µm pores. Peptides (500 nM) were incubated with 200 µg/ml liposomes in phosphate buffered saline at 37°C for 22 h. Tryptophan fluorescence at 357 nm was measured from at least triplicate trials in the PerkinElmer Life Sciences LS55 spectrofluorometer and an excitation wavelength of 280 nm for SHP-1 and 290 nm for SHP-2, 10 nm excitation and 9 nm emission slit widths. The distance of tryptophans from the bilayer center (ZCF) is calculated from the equation [12]: [drawing 1] Where LC1 is the distance from the center of the bilayer to the shallow quencher, in this case 10.8 Å for 6,7-dibromo-PC [25], F1 is the intensity of tryptophan in the presence of the shallow quencher and F2 is the tryptophan intensity in the presence of the deep quencher, C is the mole fraction of quencher divided by the area of individual phospholipid (70 Å^2), and L21 is the difference in the depth of the two quenchers (2.7 Å). The hydrocarbon insertion depth of tryptophans is then given by one half the bilayer thickness, 29 Å [25], minus ZCF.

[2] = tested on: Live BSF T. b. brucei; assay: Trypanosome motility scoring by DIC microscopy; format: cell-based, Trypanosoma brucei brucei
Method: All images and videos were acquired with an Axio Observer Z1 equipped with an AxioCam MRm controlled by AxioVision 4.6 software. Videos were acquired with live cells at a density of 1×10^7 cells/mL in HMI 9 media with 10 % fetal bovine serum, incubated with 40 µM SHP at 37°C. Trypanosomes were visualized at magnification 63 × and videos were recorded with 100-ms acquisition times. The motility of BSF trypanosomes was scored directly or from video playback. Trypanosome motility was classified as normal, hyperactive or constricted as described previously. An example of a trypanosome scored as normal is shown in Movie S1. […] Data in figure 2D is shown as the average of at least duplicate trials with standard deviations.

[3] = tested on: BSF T. b. brucei; assay: 2 h killing assay, BSF T. b. brucei; format: cell-based, Trypanosoma brucei brucei; settings: light microscopy (Fig. 1d, Figure S2a)
[4] = Calcein release (membrane interaction) assay; format: physicochemical; settings: unilamellar egg phosphatidylcholine liposomes with 30 mM calcein, PBS, 0.2-4 µM peptide, fluorescence 484/513 nm (Figure S2b, c)
Method: Trypanosome killing and membrane interaction with SHP tryptophan variants. […] (b) The ability of SHP-1 tryptophan variants, 1 µM SHP-1ΔW1 (orange ? ), 1 µM SHP-1ΔW8 (green ? ), 0.2 µM SHP-1 (blue ? ) and 0.2 µM SHP-1ΔW18 (red ? ), and (c) SHP-3 tryptophan variants, 1 µM SHP-3ΔW1 (orange ? ), 1 µM SHP-3 (blue ? ), 1 µM SHP-3ΔW13 (red ? ) and 4 µM SHP-3ΔW20 (green ? ), to interact with lipid bilayers was determined by monitoring the release of entrapped calcein from unilamellar egg phosphatidylcholine liposomes.
Calcein Release Assays – Membrane permeabilization assays were conducted as described in detail previously. Unilamellar liposomes were constructed as described above but with 30 mM calcein in 10 mM Hepes as the hydration buffer. Untrapped dye was removed by gel filtration (Sephacryl S-300 HR, GE Healthcare). Liposomes were diluted 1:1000 into phosphate buffered saline, and calcein fluorescence was monitored at 513 nm when excited at 484 nm. The percent calcein release was calculated relative to the 100% fluorescence intensity, achieved by the addition of 0.01% Triton X-100.

[5] = tested on: BSF T. b. brucei; assay: Flow cytometry peptide binding; format: cell-based, Trypanosoma brucei brucei; settings: 8 µM FITC-labeled peptide, 3×10^6 cells/ml, HMI 9 plus 10 % fetal bovine serum, 25 °C, 50,000 cells counted immediately, flow cytometry (Figure S1)
Method: SHP binding to BSF T. b. brucei. FITC-labeled SHP-1 (blue ? ) and SHP-3 (green ? ) were assayed for binding to BSF T. b. brucei via flow cytometry (no peptide, red ? ) . Trypanosomes were adjusted to 3 × 10^6 cells/ml in HMI 9 media with 10 % fetal bovine serum, 8 µM FITC-SHP-1 or FITC-SHP-3 was added and 50,000 cells were immediately counted.
Flow Cytometry – Peptide binding to BSF T. b. brucei was monitored by flow cytometry as described previously. Binding assays were performed with 3 × 10^6 cells/ml in HMI 9 plus 10 % fetal bovine serum at 25 °C. FITC-labeled SHP-1 or SHP-3 was added to a final concentration of 8 µM and 50,000 cells were immediately counted on a CyAn ADP flow cytometer (Dako). Data were analyzed with FlowJo software (TreeStar Inc.).

[6] = 500 nM peptide, PBS, 37°C, 22 h
[7] = 40 µM SHP, 37°C, 1×10^7 cells/mL, HMI 9 with 10 % fetal bovine serum, DIC microscopy, at least duplicate (Fig. 2d)

Which “F1/F2 ± S.D.” value [1, 6] does the source give for “FHQIGAALLYFYGIILNSIW [SHP-3∆W20, SHP-3 tryptophan variant, Trp at position 20]” here?
The value was 1.1620 ± 0.3194.

For “FHQIGAALLYFYWIILNSIY [SHP-3∆W13, SHP-3 tryptophan variant, Trp at position 13]”, which “F1/F2 ± S.D.” value [1, 6] is on record?
Its value is 0.9912 ± 0.0787.

Which “constriction of motility following hyperactivation” value [2, 7] does the source give for “FHQIWAALLYFYGIILNSIY [SHP-3, non-trypanocidal small hydrophobic peptide derived from an apolipoprotein]” here?
The value was “subsequent constriction does not occur”.

And the hyperactivation of motility [2, 7]?
Its hyperactivation of motility is “some hyperactivation”.

And the “motility approximately 30 sec after addition” value ([2]; 40 µM peptide, DIC video microscopy, representative cells (Movies S2, S3))?
Its value is “hyperactivated motility”.

What about the “insertion depth of native tryptophan, position 5” value ([1]; 500 nM peptide, 200 µg/ml brominated egg PC liposomes, PBS, 37°C, 22 h) of the same sequence?
The value was “approximately 1.6 Å”.

And the “quenching of N-terminal tryptophan (position 1)” value ([1]; Trp-substituted variant W1, suggests it does not intercalate into the hydrocarbon region)?
Its value is “inefficiently quenched”.

What about the “insertion depth of tryptophan at position 13” value ([1]; Trp-substituted variant W13, 500 nM peptide, 200 µg/ml brominated egg PC liposomes, PBS, 37°C, 22 h) of the same sequence?
The value was “approximately 4.7 Å”.

What about the “insertion depth of C-terminal tryptophan (position 20)” value ([1]; Trp-substituted variant W20, 500 nM peptide, 200 µg/ml brominated egg PC liposomes, PBS, 37°C, 22 h) of the same sequence?
Its value is “approximately 11.2 Å”.

What about the “F1/F2 ± S.D.” value [1, 6] of the same sequence?
Its value is 0.9202 ± 0.1260.

And the “trypanocidal activity against BSF T. b. brucei” value [3]?
Its value is “no trypanocidal activity was detected”.

What about the “membrane interaction (release of entrapped calcein from liposomes)” value [4] of the same sequence?
The value was “exhibit membrane interaction”.

What about the “binding to BSF T. brucei” value [5] of the same sequence?
The value was “binding to BSF T. brucei”.

Which “F1/F2 ± S.D.” value [1, 6] does the source give for “SDLGAVISLLLGGRQLFW [SHP-1∆W18, SHP-1 tryptophan variant, Trp at position 18]” here?
The value was 0.9285 ± 0.1557.

With “SDLGAVIWLLLGGRQLFA [SHP-1∆W8, SHP-1 tryptophan variant, Trp at position 8]” as the sequence, how does the “F1/F2 ± S.D.” value [1, 6] read?
The value was 0.9767 ± 0.0717.

With “WDLGAVISLLLGGRQLFA [SHP-1∆W1, SHP-1 tryptophan variant, Trp at position 1]” as the sequence, how does the “F1/F2 ± S.D.” value [1, 6] read?
The value was 0.8897 ± 0.1112.
